Results published in patent publication US20250275988A1, “FORMULATION FOR TREATING URINARY SYSTEM DISORDERS” (WATERSHED MEDICAL, INC., priority 2022, published 2025).
Converted amounts (≈) assume the structure as drawn. Like-named read-outs stand apart in the source and are kept apart here.

Key:
[1] = density and max drug loading of antimicrobial agents considered for carrier particles; type: physicochemical; conditions: Table 7
[2] = system: MDR Ecoli and non-MDR Ecoli isolates; test: MIC90 of antimicrobial agents; type: cell-based
[3] = density of materials; type: physicochemical; conditions: Table 4
[4] = anti-bacterial properties of SSD degradation products; conditions: compared with SSD before degradation in the bladder
Text: These degradation products include, for example, sulfanilic acid; sulfanilamide; sulfaguanidine, the guanidine derivative of sulfanilamide; and […].

[5] = cited from earlier work
[6] = tested against non-MDR Ecoli isolates only, read-out: MIC90
[7] = agents marked *: tested against both MDR Ecoli and non-MDR Ecoli isolates
[8] = agents marked *: tested against both MDR Ecoli and non-MDR Ecoli isolates, read-out: MIC90
[9] = tested against non-MDR Ecoli isolates only

## C[C@@H](O)[C@H]1C(=O)N2C(C(=O)O)=C(S[C@@H]3CN[C@H](C(=O)N(C)C)C3)[C@H](C)[C@H]12 [Meropenem]
[1]
  Density: 1.4 g/mL
[2]; [6]
  MIC90: ≤ 0.06 µg/mL

## Colistin
[2]; [7]
  MIC90: ≤0.5 ppm

## C[C@@H](O)[C@H]1C(=O)N2C(C(=O)O)=C(SCCN=CN)C[C@H]12 [Imipenem]
[2]; [8]
  MIC90: ≤ 0.12 µg/mL

## CCCCCCCCCCCCCCCCCCCCCC(=O)OCC(O)CO (centres unmarked) [Glyceryl behenate]
[3]
  Density: 0.942 g/mL

## Cefoperazone-sulbactam
[2]; [9]
  MIC90: 4 ppm

## CCCCCCCCCCCCCCCC(=O)OCC(COC(=O)CCCCCCCCCCCCCCC)OC(=O)CCCCCCCCCCCCCCC [Glyceryl tripalmitate]
[3]
  Density: 0.8752 g/mL

## Cefoperazone-tazobacatam
[1]
  Density: 1.5 g/mL
[2]; [7]
  MIC90: 0.5 ppm

## Nc1ccc(S(=O)(=O)O)cc1 [sulfanilic acid]
[4]
  anti-bacterial properties: comparable to the original compound

## NC[C@H]1O[C@H](O[C@H]2[C@H](O)[C@@H](O[C@H]3O[C@H](CO)[C@@H](O)[C@H](N)[C@H]3O)[C@H](N)C[C@@H]2N)[C@H](N)C[C@@H]1O [Tobramycin]
[1]
  Density: 1.5 g/mL
[2]; [6]
  MIC90: 8 µg/mL (≈ 17.1 µM)

## CCCCCCCCCCCCCCCCCCO [Stearyl alcohol]
[3]
  Density: 0.812 g/mL

## Polymxin B
[2]; [7]
  MIC90: 1 ppm

## CCCCCCCCCCCCCCCCCC(=O)OCC(COC(=O)CCCCCCCCCCCCCCCCC)OC(=O)CCCCCCCCCCCCCCCCC [Glyceryl tristearate]
[3]
  Density: 0.862 g/mL

## CC(C)(O/N=C(\C(=O)N[C@@H]1C(=O)N2C(C(=O)[O-])=C(C[n+]3ccccc3)CS[C@H]12)c1csc(N)n1)C(=O)O [Ceftazidime]
[1]
  Density: 1.6 g/mL
[2]; [6]
  MIC90: 8 µg/mL (≈ 14.6 µM)

## CCCCCCCCCCCCCC(=O)OCC(COC(=O)CCCCCCCCCCCCC)OC(=O)CCCCCCCCCCCCC [Glyceryl trimyristate]
[3]
  Density: 0.885 g/mL

## C[C@@H](O)[C@H]1C(=O)N2C(C(=O)O)=C(S[C@@H]3CN[C@H](CNS(N)(=O)=O)C3)[C@H](C)[C@H]12 [Doripenem]
[2]; [6]
  MIC90: ≤ 0.12 µg/mL

## Cefoperazone-avibactam
[1]
  Density: 1.5 g/mL
[2]; [7]
  MIC90: 0.25 ppm

## CO[C@@]1(NC(=O)Cc2cccs2)C(=O)N2C(C(=O)O)=C(COC(N)=O)CS[C@@H]21 [Cefoxitin]
[1]
  Density: 1.6 g/mL
[2]; [6]
  MIC90: 16 µg/mL (≈ 37.4 µM)

## Nc1ccccn1 [2-aminopyridine]
[4]
  anti-bacterial properties: comparable to the original compound

## CO/N=C(\C(=O)N[C@@H]1C(=O)N2C(C(=O)[O-])=C(C[N+]3(C)CCCC3)CS[C@H]12)c1csc(N)n1 [Cefepime]
[1]
  Density: 1.6 g/mL
[2]; [6]
  MIC90: 8 µg/mL (≈ 16.6 µM)

## Nc1ccc(S(N)(=O)=O)cc1 [sulfanilamide]
[4]
  anti-bacterial properties: comparable to the original compound

## [H]/N=C(\N/C(=N/[H])NCCCCCCNC(=N)NC(=N)Nc1ccc(Cl)cc1)Nc1ccc(Cl)cc1 [Chlorohexidine]
[1]
  Density: 1.06 g/mL
[2]; [6]
  MIC90: 3 µg/mL (≈ 5.94 µM)

## [H]/N=C(/N)NS(=O)(=O)c1ccc(N)cc1 [sulfaguanidine]
[4]
  anti-bacterial properties: comparable to the original compound

## C[C@@H](O)[C@H]1C(=O)N2C(C(=O)O)=C(S[C@@H]3CN[C@H](C(=O)Nc4cccc(C(=O)O)c4)C3)[C@H](C)[C@H]12 [Ertapenem]
[1]
  Density: 1.6 g/mL
[2]; [8]
  MIC90: 0.03 µg/mL (≈ 0.0631 µM)

## C[C@H]1[C@H](NC(=O)/C(=N\OC(C)(C)C(=O)O)c2csc(N)n2)C(=O)N1S(=O)(=O)O [Aztreoman]
[1]
  Density: 1.83 g/mL
[2]; [6]
  MIC90: 16 µg/mL (≈ 36.7 µM)

## CN(C)c1cc(NC(=O)CNC(C)(C)C)c(O)c2c1C[C@H]1C[C@H]3[C@H](N(C)C)C(O)=C(C(N)=O)C(=O)[C@@]3(O)C(O)=C1C2=O [Tigecycline]
[1]
  Density: 1.5 g/mL
[2]
  MIC90: 0.25 µg/mL (≈ 0.427 µM)

## NCC[C@H](O)C(=O)N[C@@H]1C[C@H](N)[C@@H](O[C@H]2O[C@H](CN)[C@@H](O)[C@H](O)[C@H]2O)[C@H](O)[C@H]1O[C@H]1O[C@H](CO)[C@@H](O)[C@H](N)[C@H]1O [Amikacin]
[5]
  solubility in water: 50 mg/mL (≈ 85400 µM)
[1]
  Density: 1.6 g/mL
[2]; [8]
  MIC90: 4 µg/mL (≈ 6.83 µM)

## Piperacillin-tazobactam
[1]
  Density: 1.5 g/mL
[2]; [9]
  MIC90: 4 ppm
